According to the OPERA property sets (Mansouri et al. 2018):

Details: for log10 BCF / log10 biotransformation half-life (days): fish

Row | Compound | boiling point [°C] | melting point [°C] | further results
1 | CCOC(=O)c1cccc(Cl)c1O | 270 | 21 | –
2 | CCOC(=O)C(Br)C(C)Br (stereo not drawn) | – | 58.5 | –
3 | COC1=CC(=O)O[C@@H](/C=C/c2ccccc2)C1 | – | 106 | –
4 | O=CNNC=O | – | 156 | log10 vapour pressure (mmHg): -6.13
5 | C=O | -19.1 | – | log10 Henry constant (atm·m³/mol): -6.47; ready biodegradability: readily biodegradable
6 | c1ccc2c(c1)c(Cc1cn(CN3CCCCC3)c3ccccc13)cn2CN1CCCCC1 | – | 138 | –
7 | CC(Cl)CO (stereo not drawn) | 134 | – | log10 vapour pressure (mmHg): 0.72
8 | Nc1cccc([N+](=O)[O-])c1N | – | 158 | –
9 | Nc1ccc([N+](=O)[O-])cc1 | 332 | 146 | log10 Henry constant (atm·m³/mol): -8.9; log10 Koc (L/kg): 1.88; log10 vapour pressure (mmHg): -5.49; ready biodegradability: not readily biodegradable; log10 BCF: 0.6; log10 biotransformation half-life (days): -0.51
10 | CCCCCCCCCCCCCCCCCCCCCCCCC | 402 | 54 | log10 biodegradation half-life (days): 2.08; log10 vapour pressure (mmHg): -5.82; ready biodegradability: readily biodegradable
11 | O=S(=O)(O)CCCN1CCOCC1 | – | 284 | –
12 | OCC(CO)(CO)CO | – | 260 | ready biodegradability: readily biodegradable; log10 BCF: 0.1
13 | CC(=O)C(C)O (stereo not drawn) | 143 | 15 | –
14 | O=C(c1ccc(F)cc1)C1CCN(CCn2c(=O)[nH]c3ccccc3c2=O)CC1 | – | 231 | –
15 | CS | 5.9 | -123 | log10 vapour pressure (mmHg): 3.18; ready biodegradability: readily biodegradable
16 | CC=C(CC)C(C)C(=O)CC (stereo not drawn) | – | 74.5 | –
17 | CN(CCCN1c2ccccc2CCc2ccccc21)CC(=O)c1ccc(Cl)cc1 | – | 105 | –
18 | O=P(O)(Oc1ccccc1)Oc1ccccc1 | – | 67.5 | –
19 | Clc1ccc(C(Cl)Cl)cc1Cl | 257 | – | –
20 | ClC(Cl)=CBr | 108 | -88.5 | –
21 | CCOC(=O)C(C)=O | 155 | -50 | –
22 | COC(=O)/C(C)=C/OP(=S)(OC)OC | – | – | log10 vapour pressure (mmHg): -2.92
23 | CCc1cccc(CC)c1N(COC)C(=O)CCl | – | 40 | log10 Henry constant (atm·m³/mol): -8.08; log10 Koc (L/kg): 2.28; ready biodegradability: not readily biodegradable; log10 BCF: 1.12; log10 biotransformation half-life (days): -1.1
24 | CCOc1ccccc1C=O | 248 | 21 | –
25 | Nc1cnc2ccccc2c1 | – | 91.5 | log10 vapour pressure (mmHg): -4.54

Row | Compound | boiling point [°C] | melting point [°C] | further results
26 | Cc1c(Cl)cc(-c2ccc(O)nn2)cc1Cl | – | 252 | –
27 | O=Cc1cccc2ccccc12 | 292 | 33.5 | –
28 | COc1cc(O)c(C=O)c(OC)c1 | – | 70 | –
29 | O=c1sc2ccccc2c(O)c1C1CC(c2ccc(-c3ccc(Br)cc3)cc2)Cc2ccccc21 (stereo not drawn) | – | 234 | –
30 | CNC(=O)COc1ccccc1OCC(O)CNC(C)(C)C (stereo not drawn) | – | 96.5 | –
31 | COC(=O)C1CC1 | 115 | – | –
32 | CC(=O)Nc1ccccc1Cl | – | 89 | log10 Koc (L/kg): 1.58
33 | CCCC(C)Br (stereo not drawn) | 117 | -95.5 | log10 vapour pressure (mmHg): 1.33
34 | O=[N+]([O-])c1ccc(Nc2ccccc2)c([N+](=O)[O-])c1 | – | 159 | log10 vapour pressure (mmHg): -8.52
35 | Nc1ccncc1 | 273 | 158 | ready biodegradability: not readily biodegradable; log10 BCF: 0.66
36 | Cc1[nH]c(C)c(C)c1C | – | 111 | –
37 | COc1ccc(-c2coc3cc(O)ccc3c2=O)cc1 | – | 256 | –
38 | COC(=O)COc1ccccc1 | 245 | 245 | –
39 | O=C(O)c1cc(O)c(O)c(=O)c(O)c1 | – | 317 | –
40 | CCC(O)CC | 116 | – | log10 vapour pressure (mmHg): 0.943
41 | CCN(CC)CCOC(=O)c1ccc(N)cc1.Cl | – | 156 | –
42 | Cc1ccc(CCc2ccc(C)cc2)cc1 | – | 85 | –
43 | CCCCC(CC)COC(=O)c1ccc(C(=O)OCC(CC)CCCC)c(C(=O)OCC(CC)CCCC)c1 (stereo not drawn) | 414 | – | ready biodegradability: not readily biodegradable; log10 BCF: 1.17
44 | CC(=O)Oc1c(C)cc(OCC(O)CNC(C)C)c(C)c1C (stereo not drawn) | – | 106 | –
45 | CN1C(CSCC(F)(F)F)Nc2cc(Cl)c(S(N)(=O)=O)cc2S1(=O)=O (stereo not drawn) | – | 214 | –
46 | O=C1C(Cl)=C(NC(=O)C(Cl)Cl)C(=O)c2ccccc21 | – | 212 | –
47 | Fc1cc(F)c(F)c(F)c1F | 85.7 | -47.3 | log10 vapour pressure (mmHg): 1.83
48 | O=[N+]([O-])c1ccc(S(=O)(=O)O)c([N+](=O)[O-])c1 | – | 108 | –
49 | NCC(CC(=O)O)c1ccc(Cl)cc1 (stereo not drawn) | – | 207 | –
50 | CC(C)(C)c1cc(C(C)(C)C)cc(C(C)(C)C)c1 | – | – | ready biodegradability: not readily biodegradable; log10 BCF: 4.36; log10 biotransformation half-life (days): 2.7

Row | Compound | boiling point [°C] | melting point [°C] | further results
51 | ClC=C(Cl)Cl | 87.2 | -84.7 | log10 Henry constant (atm·m³/mol): -2.01; log10 Koa: 2.99; log10 Koc (L/kg): 2; log10 vapour pressure (mmHg): 1.84; ready biodegradability: not readily biodegradable; log10 BCF: 1.2; log10 biotransformation half-life (days): -0.41
52 | OC1CCCC1C1CCCC1 (stereo not drawn) | 236 | 20 | –
53 | N#CCc1ccc([N+](=O)[O-])cc1 | – | 117 | –
54 | NCC(F)(F)C(F)(F)F | 49 | – | –
55 | O=C(O)c1cc(Br)ccc1Br | – | 157 | –
56 | CC1CO1 (stereo not drawn) | 35 | -112 | log10 vapour pressure (mmHg): 2.73; ready biodegradability: readily biodegradable
57 | CCCCc1cc2ccccc2c(OCCN(C)C)n1 | – | 146 | –
58 | Nc1cc2ccccc2cc1N | – | 199 | –
59 | Cc1cc(C)c([N+](=O)[O-])c(C)c1[N+](=O)[O-] | 418 | 85.3 | –
60 | CCOC(=O)CNc1ccccc1 | 274 | 58 | –
61 | CCCCC(O)(CCCC)CCCC | – | 20 | –
62 | CCOC1Oc2ccc(OS(C)(=O)=O)cc2C1(C)C (stereo not drawn) | – | 71 | log10 Koc (L/kg): 2.53; log10 vapour pressure (mmHg): -5.31
63 | Cc1c(Cl)cccc1Nc1ccccc1C(=O)O | – | 207 | ready biodegradability: not readily biodegradable
64 | CC(C)c1ccc(C=O)cc1 | 236 | – | ready biodegradability: readily biodegradable
65 | Clc1nnnn1-c1ccccc1 | – | 123 | –
66 | C=C(C)C(=O)Cl | 96 | -60 | –
67 | C=CCCCC(C)C | 113 | – | log10 vapour pressure (mmHg): 1.4
68 | FC(F)(F)C(F)(F)C(F)(F)C(F)(F)C(F)(F)C(F)(F)C(F)(F)C(F)(F)Br | 141 | – | –
69 | CCC[C@](C)(O)CC | 143 | – | log10 vapour pressure (mmHg): 0.291
70 | CC(C)OC=O | 68.2 | -80 | log10 vapour pressure (mmHg): 2.14
71 | C=CCC(C(=O)NC(N)=O)C(C)C (stereo not drawn) | – | 194 | –
72 | CCCC=CCO | 157 | – | –
73 | CCCCCCC(O)C(=O)O (stereo not drawn) | – | 70 | –
74 | CC(C)C(Br)C(=O)NC(N)=O (stereo not drawn) | – | 154 | –
75 | CS(=O)(=O)O | – | 20 | log10 vapour pressure (mmHg): -3.37; ready biodegradability: readily biodegradable

Row | Compound | boiling point [°C] | melting point [°C] | further results
76 | CCN(C(=O)n1nnn(-c2ccccc2Cl)c1=O)C1CCCCC1 | – | 79 | log10 vapour pressure (mmHg): -9.43
77 | N#Cc1cc(Cl)ccc1N | – | 97 | –
78 | CC1CCc2ccccc2C1 (stereo not drawn) | 221 | -43.1 | –
79 | CCCOCOCCC | 140 | -97.3 | –
80 | CCCCCC1C(=O)CCC1CC(=O)OC (stereo not drawn) | – | -10 | ready biodegradability: readily biodegradable
81 | C=CCN(CC=C)CC=C | 156 | – | log10 vapour pressure (mmHg): 0.561; ready biodegradability: not readily biodegradable; log10 BCF: 0.55
82 | O=[N+]([O-])c1ccc(Br)c(Cl)c1 | – | – | log10 Koc (L/kg): 2.6
83 | O=C(O)c1ccc(F)cc1 | – | 185 | –
84 | CC(C)COCCO | 160 | – | –
85 | CCOP(=S)(OCC)Oc1cc(C)nc(C(C)C)n1 | – | – | log10 Henry constant (atm·m³/mol): -6.95; log10 Koc (L/kg): 2.75; log10 vapour pressure (mmHg): -4.05; ready biodegradability: not readily biodegradable; log10 BCF: 1.85; log10 biotransformation half-life (days): 0.07
86 | COC(=O)c1ccccc1C(=O)OC | 284 | 5.5 | log10 Koc (L/kg): 1.6; log10 vapour pressure (mmHg): -2.51; ready biodegradability: readily biodegradable
87 | CC1(C)C2CCC1(C)C(Cl)C2 (stereo not drawn) | 208 | 132 | –
88 | CC(=O)c1cc(C)ccc1O | 210 | 50 | –
89 | C[C@]12CC[C@@H]3c4ccc(OC5CCCC5)cc4CC[C@H]3[C@@H]1C[C@@H](O)[C@@H]2O | – | 99 | –
90 | Cc1cccc([N+](=O)[O-])c1 | 232 | 15.5 | log10 Henry constant (atm·m³/mol): -5.03; log10 vapour pressure (mmHg): -0.687; ready biodegradability: not readily biodegradable; log10 BCF: 1.08; log10 biotransformation half-life (days): -0.79
91 | SCc1ccc(Cl)cc1 | – | 19.5 | –
92 | OCC(F)(F)C(F)(F)C(F)(F)C(F)F | 140 | – | –
93 | COc1cc(O)cc(O)c1 | – | 80.3 | –
94 | Oc1ccc(/C=C/c2cc(O)cc(O)c2)cc1 | – | 254 | –
95 | Cc1cc(O)cc(O)c1C | 284 | 136 | –
96 | O=S(=O)(O)c1ccc2ccccc2c1 | – | 91 | –
97 | O=CC=Cc1ccccc1 | 246 | -7.5 | log10 vapour pressure (mmHg): -1.54
98 | CC=CCC(C)=O | 127 | – | –
99 | Ic1ccc(I)c(I)c1I | – | 136 | –
100 | CC(C)CCNCCC(C)C | 188 | -44 | –

Row | Compound | boiling point [°C] | melting point [°C] | further results
101 | C=C(C)C=O | 68.4 | -81 | log10 Henry constant (atm·m³/mol): -3.63; log10 vapour pressure (mmHg): 2.19
102 | O=[N+]([O-])c1cc([N+](=O)[O-])c(Cl)c(C(F)(F)F)c1 | – | 63 | –
103 | NS(=O)(=O)c1ccccc1[N+](=O)[O-] | – | 191 | –
104 | BrCCC1CCCCC1 | 212 | -57 | –
105 | c1ccc(Cc2cccc3ccccc23)cc1 | 350 | 59.5 | –
106 | Clc1ccc(-c2c(Cl)cccc2Cl)cc1 | – | – | log10 Henry constant (atm·m³/mol): -3.7; log10 Koa: 7.72; log10 biotransformation half-life (days): 2.44
107 | CC/C(=C(\c1ccccc1)c1ccc(OCCN(C)C)cc1)c1ccccc1 | – | 97 | –
108 | C[C@@]12C(=O)OC(=O)[C@]1(C)C1CCC2O1 | – | 218 | –
109 | Nc1ccc(C(=O)NCC(=O)O)cc1 | – | 198 | –
110 | Ic1cc(I)c(I)c(I)c1 | – | 148 | –
111 | COc1ccc(CO)cc1 | 259 | 25 | –
112 | Cl.c1ccc(CC2=NCCN2)cc1 | – | 175 | –
113 | NNC(=O)c1ccncc1 | – | 171 | –
114 | Clc1ccc(Cl)c(Cl)c1 | 214 | 17 | log10 Henry constant (atm·m³/mol): -2.85; log10 Koa: 4.95; log10 Koc (L/kg): 3.1; log10 vapour pressure (mmHg): -0.337; ready biodegradability: not readily biodegradable; log10 BCF: 3.32; log10 biotransformation half-life (days): 1.2
115 | CCCCCCCCCCCCCCCCCCN | 347 | 52.9 | –
116 | Brc1ccc2c(c1)Cc1ccccc1-2 | – | 114 | –
117 | OCCNc1ccccc1 | 280 | 11 | log10 vapour pressure (mmHg): -2.66
118 | Clc1ccccc1I | 234 | 0.7 | –
119 | CC(=O)O[C@@H](C(=O)O)c1ccccc1 | – | 97 | –
120 | COc1cc2c3c(c4ccc(OC)c(OC)c4c2cc1OC)CN1CCC[C@H]1C3 | – | 220 | –
121 | C1=COCCC1 | 86 | -70 | –
122 | c1ccc2c(c1)-c1cc3ccccc3c3cc4ccccc4c-2c13 | – | 232 | –
